Reference: US7138361B2, “Herbicidal heterocycles” (E. I. du Pont de Nemours and Company, priority 2000, dated 2006)

Tests used:
Format in all cases: in vivo
Sunflower [1] = experiment: Test C preemergence; settings: Rate 250 g/ha, visual evaluation after 12 to 14 days
[2] = system: barnyardgrass (Echinochloa crus-galli); experiment: Test B preemergence; settings: scale 0 to 100, 0 no effect, 100 complete control
Summary of the method: (§1)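 Preemergence: seeds planted and treated with test chemicals in non-phytotoxic solvent with surfactant; postemergence on plants 2–18 cm (1- to 4-leaf stage). Kept in greenhouse 13–15 days, then visually rated against controls on a 0 (no effect) to 100 (complete control) scale.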

rice (Oryza saliva) = experiment: Test B preemergence; settings: Preemergence, Rate 500 g/ha; scale 0 to 100, 0 no effect, 100 complete control
Summary of the method: as §1

[3] = system: pigweed (Amaranthus retroflexus); experiment: Test B preemergence; settings: Preemergence, Rate 500 g/ha; scale 0 to 100, 0 no effect, 100 complete control
Summary of the method: as §1

[4] = system: cocklebur (Xanthium strumarium); experiment: Test B preemergence; settings: scale 0 to 100, 0 no effect, 100 complete control
Summary of the method: as §1

[5] = system: lambsquarters (Chenopodium album); experiment: Test B preemergence; settings: scale 0 to 100, 0 no effect, 100 complete control
Summary of the method: as §1

[6] = system: crabgrass (Digitaria sanguinalis); experiment: Test B preemergence; settings: scale 0 to 100, 0 no effect, 100 complete control
Summary of the method: as §1

[7] = system: Surinam grass (Brachiaria decumbens); experiment: Test B preemergence; settings: scale 0 to 100, 0 no effect, 100 complete control
Summary of the method: as §1

corn (Zea mays) = experiment: Test B preemergence; settings: scale 0 to 100, 0 no effect, 100 complete control
Summary of the method: as §1

[8] = system: morning glory (Ipomoea hederacea); experiment: Test B preemergence; settings: Preemergence, Rate 500 g/ha; scale 0 to 100, 0 no effect, 100 complete control
Summary of the method: as §1

[9] = system: velvetleaf (Abutilon theophrasti); experiment: Test B preemergence; settings: Preemergence, Rate 500 g/ha; scale 0 to 100, 0 no effect, 100 complete control
Summary of the method: as §1

[10] = system: giant foxtail (Setaria faberii); experiment: Test B preemergence; settings: scale 0 to 100, 0 no effect, 100 complete control
Summary of the method: as §1

Sunflower [11] = experiment: Test C preemergence; settings: Rate 62 g/ha; scale 0 to 100, 0 no effect, 100 complete control
Source text: (§2) Seeds of plant species selected from bermudagrass (Cynodon dactylon), Surinam grass (Brachiaria decumbens), cocklebur (Xanthium strumarium), corn (Zea mays), crabgrass (Digitaria sanguinalis), woolly cupgrass (Eriochloa villosa), giant foxtail (Setaria faberii), goosegrass (Eleusine indica), johnsongrass (Sorghum halepense), kochia (Kochia scoparia), lambsquarters (Chenopodium album), morningglory (Ipomoea hederacea), yellow nutsedge (Cyperus esculentus), pigweed (Amaranthus retroflexus), common ragweed (Ambrosia elatior), soybean (Glycine max) and velvetleaf (Abutilon theophrasti) were planted and treated preemergence with test chemicals formulated in a non-phytotoxic solvent mixture which included a surfactant.
(§3) At the same time, plants selected from these crop and weed species and also winter barley (Hordeum vulgare), blackgrass (Alopecurus myosuroides), canary grass (Phalaris minor), chickweed (Stellaria media), downy brome (Bromus tectorum), green foxtail (Setaria viridis), Italian ryegrass (Lolium multiflorum), wheat (Triticum aestivum), wild oat (Avena fatua) and windgrass (Apera spica-venti) were treated with postemergence applications of some of the test chemicals formulated in the same manner. Plants ranged in height from 2 to 18 cm (1- to 4-leaf stage) for postemergence treatments. Plant species in the flooded paddy test consisted of rice (Oryza saliva), smallflower flatsedge (Cyperus difformis), duck salad (Heteranthera limosa) and barnyardgrass (Echinochloa crus-galli) grown to the 2-leaf stage for testing. Treated plants and controls were maintained in a greenhouse for 12 to 14 days, after which time all species were compared to controls and visually evaluated. Plant response ratings, summarized in Table C, are based on a scale of 0 to 100 where 0 is no effect and 100 is complete control. A dash (-) response means no test result.

[12] = system: goosegrass (Eleusine indica); experiment: Test C preemergence
Source text: as §2, §3

[13] = system: cocklebur (Xanthium strumarium); experiment: Test C preemergence; settings: preemergence
Source text: as §2, §3

[14] = system: crabgrass (Digitaria sanguinalis); experiment: Test C preemergence
Source text: as §2, §3

[15] = system: morningglory (Ipomoea hederacea); experiment: Test C preemergence
Source text: as §2, §3

[16] = system: Surinam grass (Brachiaria decumbens); experiment: Test C preemergence
Source text: as §2, §3

[17] = system: bermudagrass (Cynodon dactylon); experiment: Test C preemergence
Source text: as §2, §3

[18] = system: velvetleaf (Abutilon theophrasti); experiment: Test C preemergence
Source text: as §2, §3

[19] = system: giant foxtail (Setaria faberii); experiment: Test C preemergence
Source text: as §2, §3

[20] = Rate 62 g/ha, scale 0 to 100, 0 no effect, 100 complete control
[21] = preemergence, Rate 31 g/ha, scale 0 to 100
[22] = preemergence, Rate 250 g/ha, visual evaluation after 12 to 14 days
[23] = preemergence, Rate 125 g/ha, scale 0 to 100, 0 no effect, 100 complete control

O=C1C(n2ccc(C3CC3)n2)OCN1c1cccc(C(F)(F)F)c1 (stereo not drawn) [Compound 28]
Plant response rating (0 to 100), Sunflower (Sunflower [1]): 40 | Plant response rating, Barnyardgrass ([2]; Preemergence, Rate 500 g/ha): 100 | Plant response rating, Barnyardgrass ([2]; preemergence, Rate 125 g/ha): 50 | Plant response rating, Rice (rice (Oryza saliva)): 40 | Plant response rating, Pigweed [3]: 100 | Plant response rating, Cocklebur ([4]; Preemergence, Rate 500 g/ha): 100 | Plant response rating, Cocklebur ([4]; preemergence, Rate 125 g/ha): 0 | Plant response rating, Lambsquarters ([5]; Preemergence, Rate 500 g/ha): 100 | Plant response rating, Lambsquarters ([5]; preemergence, Rate 125 g/ha): 100 | Plant response rating, Crabgrass ([6]; Preemergence, Rate 500 g/ha): 100 | Plant response rating, Crabgrass ([6]; preemergence, Rate 125 g/ha): 20 | Plant response rating, Surinam grass ([7]; Preemergence, Rate 500 g/ha): 70 | Plant response rating, Surinam grass ([7]; preemergence, Rate 125 g/ha): 0 | Plant response rating, Corn (corn (Zea mays); Preemergence, Rate 500 g/ha): 0 | Plant response rating, Corn (corn (Zea mays); preemergence, Rate 125 g/ha): 0 | Plant response rating, Morningglory [8]: 0 | Plant response rating, Velvetleaf [9]: 0 | Plant response rating, Foxtail, Giant ([10]; Preemergence, Rate 500 g/ha): 100 | Plant response rating, Foxtail, Giant ([10]; preemergence, Rate 125 g/ha): 20 | Plant response rating, Sunflower (Sunflower [11]): 20 | Plant response rating, Goosegrass [12, 20]: 80 | Plant response rating, Goosegrass [12, 21]: 40 | Plant response rating (0 to 100), Goosegrass [12, 22]: 100 | Plant response rating, Goosegrass [12, 23]: 100 | Plant response rating, Cocklebur ([13]; Rate 31 g/ha, scale 0 to 100): 0 | Plant response rating (0 to 100), Cocklebur ([13]; Rate 250 g/ha, visual evaluation after 12 to 14 days): 0 | Plant response rating, Cocklebur ([13]; Rate 125 g/ha, scale 0 to 100, 0 no effect, 100 complete control): 0 | Plant response rating, Crabgrass [14, 20]: 90 | Plant response rating, Crabgrass [14, 21]: 90 | Plant response rating (0 to 100), Crabgrass [14, 22]: 100 | Plant response rating, Crabgrass [14, 23]: 100 | Plant response rating, Morningglory [15, 20]: 0 | Plant response rating, Morningglory [15, 21]: 0 | Plant response rating (0 to 100), Morningglory [15, 22]: 0 | Plant response rating, Morningglory [15, 23]: 0 | Plant response rating, Surinam grass [16, 20]: 20 | Plant response rating, Surinam grass [16, 21]: 20 | Plant response rating (0 to 100), Surinam grass [16, 22]: 60 | Plant response rating, Surinam grass [16, 23]: 60 | Plant response rating, Bermudagrass [17, 20]: 50 | Plant response rating, Bermudagrass [17, 21]: 20 | Plant response rating (0 to 100 where 0 is no effect and 100 is complete control), Bermudagrass [17, 22]: 100 | Plant response rating, Bermudagrass [17, 23]: 100 | Plant response rating, Velvetleaf [18, 20]: 0 | Plant response rating, Velvetleaf [18, 21]: 0 | Plant response rating (0 to 100), Velvetleaf [18, 22]: 0 | Plant response rating, Velvetleaf [18, 23]: 0 | Plant response rating, Foxtail, Giant [19, 20]: 0 | Plant response rating, Foxtail, Giant [19, 21]: 0 | Plant response rating (0 to 100), Foxtail, Giant [19, 22]: 0 | Plant response rating, Foxtail, Giant [19, 23]: 100
